Experiments:
CDK2/Cyclin E1 = CDK2/Cyclin E1 (Homo sapiens (Human), UniProt P24941); assay: biochemical; settings: CDK2_Ki (nM), phosphorylated CDK2/Cyclin E1, 150 μM ATP, Morrison tight-binding fit
Procedure: The assay was initiated with the addition of ATP, following a fifteen minutes pre-incubation of enzyme and inhibitor at room temperature in the reaction mixture. The reaction was stopped after 45 minutes at room temperature by the addition of 50 μL of 80 mM EDTA, pH 7.5.

CDK6/Cyclin D1 = CDK6/Cyclin D1 (Homo sapiens (Human), UniProt Q00534); assay: biochemical; settings: CDK6_Ki (nM), non-phosphorylated CDK6/Cyclin D1, 2 mM ATP, Morrison fit
CDK4/Cyclin D3 = CDK4/Cyclin D3 (Homo sapiens (Human), UniProt P11802); assay: biochemical
Ovcar3 tumor xenograft = assay: Ovcar3 mouse tumor xenograft model; assay type: in vivo, NSG mice; settings: 10 mpk PO QD, 50 mpk PO QD and 50 mpk PO BID, 14 days
Procedure: Ovcar3 tumor cell line, purchased from ATCC (ATCC HTB-161™) was cultured in RPMI1640 (1×) media (Gibco™ cat#11875-093) with 10% FBS (Gibco™ cat #26140-079). To establish a Ovcar3 xenograft model, 5×10^6 cells per mouse was implanted subcutaneously into right hind flank NSG mice (#5557-NOD.cg-Prkdc Jackson Lab). Cells were suspended in 50% matrigel (Cultrex Basement Membrane Extract (BME), Trevigen's Basement Membrane Matrix) and 50% RPMI1640 (1×) media (Gibco™ cat#11875-093) serum free media prior to implantation.
Animals were randomized 39 days after cells implantation with each group consisted of 4 mice. Treatment began when tumors reached 100 mm^3-190 mm^3 in size. Test compounds were prepared in 40% Captisol and dosed PO at 10 and 50 mg/kg QD or at 50 mg/kg BID as a suspension for 14 days. Animals were taken down at designated time. Mice receiving no drugs were given vehicle QD or BID for 14 days. Tumor volumes were measured once prior to randomization with an electric caliper, with tumor volumes were calculated using Length×Width×Width/2 formulation. Tumor volumes were measured twice a week with an electric caliper, with tumor volumes calculated using Length×Width×Width/2 formula. Animal weights were recorded twice weekly.

HCC1806 tumor xenograft = assay: HCC1806 mouse tumor xenograft model; assay type: in vivo, NU/NU female mice; settings: 30 mpk PO BID, 50 mpk PO BID and 75 mpk PO BID, 14 days
Procedure: Source: HCC1806 (# CRL 2335, ATCC, Manassas, Va.)
The HCC1806 tumor cell line was cultured in RPMI1640 media supplemented with 10% Fetal Bovine Serum (FBS). To establish a HCC1806 xenograft model, 5×10^6 cells per mouse were implanted subcutaneously into right hind flank NU/NU female mice. Cells were suspended in 50% Cultrex Basement Membrane Extract and 50% RPMI 1640 media serum free media prior to implantation.
Animals were randomized 7 days after cells implantation with each group consisting of 13 mice. Treatment began when tumors reached 100 mm^3 to 170 mm^3 in size on Day 7. Test compounds were prepared in 0.1% Tween, 0.5% Methyl cellulose in water and dosed PO at 30, 50, and 75 mg/kg as a suspension BID for 14 days. Mice receiving no drugs were given vehicle BID for 14 days. Tumor volumes were measured twice a week with an electric caliper, with tumor volumes calculated using Length×Width×Width/2 formula. Animal weights were recorded twice weekly.

CDK4/Cyclin D3, sequence (P11802 whole entry): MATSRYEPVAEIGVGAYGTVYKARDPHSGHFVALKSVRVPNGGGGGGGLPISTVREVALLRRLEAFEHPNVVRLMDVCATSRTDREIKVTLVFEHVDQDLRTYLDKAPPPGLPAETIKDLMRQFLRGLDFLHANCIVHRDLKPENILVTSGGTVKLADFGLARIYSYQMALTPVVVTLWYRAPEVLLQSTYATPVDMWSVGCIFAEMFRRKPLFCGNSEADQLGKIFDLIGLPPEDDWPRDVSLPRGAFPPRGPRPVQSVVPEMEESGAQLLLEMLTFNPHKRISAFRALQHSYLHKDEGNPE
CDK4/Cyclin D3, sequence (P30281 whole entry partner): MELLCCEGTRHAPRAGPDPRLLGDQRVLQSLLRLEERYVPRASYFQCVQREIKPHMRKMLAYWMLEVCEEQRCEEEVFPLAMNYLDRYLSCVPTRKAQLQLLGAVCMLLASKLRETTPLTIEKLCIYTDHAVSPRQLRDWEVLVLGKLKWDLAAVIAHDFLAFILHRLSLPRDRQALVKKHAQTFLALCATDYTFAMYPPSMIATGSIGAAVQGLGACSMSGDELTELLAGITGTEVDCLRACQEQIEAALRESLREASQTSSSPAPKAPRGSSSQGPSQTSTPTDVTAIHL
CDK6/Cyclin D1, sequence (Q00534 whole entry): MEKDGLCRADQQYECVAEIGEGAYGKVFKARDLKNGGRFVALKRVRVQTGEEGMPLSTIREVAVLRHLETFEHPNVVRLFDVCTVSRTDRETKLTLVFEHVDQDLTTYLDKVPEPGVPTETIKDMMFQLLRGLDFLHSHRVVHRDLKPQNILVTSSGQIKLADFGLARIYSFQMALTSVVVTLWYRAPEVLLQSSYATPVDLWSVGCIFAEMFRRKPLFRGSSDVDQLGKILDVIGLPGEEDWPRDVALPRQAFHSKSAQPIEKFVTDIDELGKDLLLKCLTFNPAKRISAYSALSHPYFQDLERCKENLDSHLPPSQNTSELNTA
CDK6/Cyclin D1, sequence (P24385 whole entry partner): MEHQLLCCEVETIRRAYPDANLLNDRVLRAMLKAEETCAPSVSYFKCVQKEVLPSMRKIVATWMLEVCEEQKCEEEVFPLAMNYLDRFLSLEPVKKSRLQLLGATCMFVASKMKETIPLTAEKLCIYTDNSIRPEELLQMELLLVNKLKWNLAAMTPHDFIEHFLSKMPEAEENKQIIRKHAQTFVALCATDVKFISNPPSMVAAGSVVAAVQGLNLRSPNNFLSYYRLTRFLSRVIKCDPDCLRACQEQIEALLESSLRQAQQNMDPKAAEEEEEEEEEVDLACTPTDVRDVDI

Structure (SMILES) | Ki (CDK2/Cyclin E1) | Ki (CDK6/Cyclin D1) | Ki (CDK4/Cyclin D3) | inhibition of tumor growth (mm^3) (Ovcar3 tumor xenograft) | inhibition of tumor growth (mm^3) (HCC1806 tumor xenograft)
C[C@@]1(O)CCC[C@H]1n1c(=O)c(F)cc2cnc(NC3CCN(S(C)(=O)=O)CC3)nc21 (single isomer, unassigned) [Example 6, (−)-6-fluoro-8-[(1R*,2R*)-2-hydroxy-2-methylcyclopentyl]-2-{[1-(methylsulfonyl)piperidin-4-yl]amino}pyrido[2,3-d]pyrimidin-7(8H)-one] | 0.48 nM | 2.38 nM | 3.94 nM | – | –
C[C@@]1(O)CCC[C@H]1n1c(=O)c(CC#N)cc2cnc(NC3CCN(S(C)(=O)=O)CC3)nc21 (single isomer, unassigned) [Example 120, (−)-(8-[(1R*,2R*)-2-hydroxy-2-methylcyclopentyl]-2-{[1-(methylsulfonyl)piperidin-4-yl]amino}-7-oxo-7,8-dihydropyrido[2,3-d]pyrimidin-6-yl)acetonitrile] | 0.16 nM | 0.18 nM | 0.34 nM | – | –
C[C@@]1(O)CCC[C@H]1n1c(=O)c(CCO)cc2cnc(NC3CCN(S(C)(=O)=O)CC3)nc21 (single isomer, unassigned) [Example 122, (−)-6-(2-hydroxyethyl)-8-[(1R*,2R*)-2-hydroxy-2-methylcyclopentyl]-2-{[1-(methylsulfonyl)piperidin-4-yl]amino}pyrido[2,3-d]pyrimidin-7(8H)-one] | 0.11 nM | 0.23 nM | 0.92 nM | – | –
C[C@@]1(O)CCC[C@H]1n1c(=O)ccc2cnc(NC3CCN(S(C)(=O)=O)CC3)nc21 [Example 2, 8-[(1R,2R)-2-hydroxy-2-methylcyclopentyl]-2-{[1-(methylsulfonyl)piperidin-4-yl]amino}pyrido[2,3-d]pyrimidin-7(8H)-one] | – | – | – | dose dependent inhibition of tumor growth | dose dependent inhibition of tumor growth
CS(=O)(=O)N1CCC(Nc2ncc3ccc(=O)n([C@@H]4CCC[C@@H](O)C4)c3n2)CC1 [Example 3, 8-[(1R,3R)-3-hydroxycyclohexyl]-2-{[1-(methylsulfonyl)piperidin-4-yl]amino}pyrido[2,3-d]pyrimidin-7(8H)-one] | 0.26 nM | 1.17 nM | 3.43 nM | – | –
C[C@@]1(O)CCC[C@H]1n1c(=O)c(C(F)F)cc2cnc(NC3CCN(S(C)(=O)=O)CC3)nc21 [Example 10, 6-(difluoromethyl)-8-[(1R,2R)-2-hydroxy-2-methylcyclopentyl]-2-{[1-(methylsulfonyl)piperidin-4-yl]amino}pyrido[2,3-d]pyrimidin-7(8H)-one] | – | – | – | – | tumor growth inhibition
CS(=O)(=O)N1CCC(Nc2ncc3ccc(=O)n([C@H]4CC[C@@H](O)CC4)c3n2)CC1 [Example 215, 8-(cis-4-hydroxycyclohexyl)-2-{[1-(methylsulfonyl)piperidin-4-yl]amino}pyrido[2,3-d]pyrimidin-7(8H)-one] | 1.57 nM | 2.84 nM | – | – | –

Reference: US10233188B2, “CDK2/4/6 inhibitors” (priority 2016, dated 2019)
